{"source": "the supplement of paper PMC11208160"}
{"assay": "recombinant barcode read abundance after kanamycin selection (control-corrected) (log10(CPM+1)); higher = more efficient recombination; sequences stand for … in AGTGCAGAGAAAATCGGCCAGTTTTCTCTGCCTGCAGTCCGCATGCCGT…AGATTTATGCAGCGGACTGCCTTTCTCCCAAAGTGATAAACCGGACAGTATCATGGACCGGTTTTCCCGGTAATCCGTATTTGCAAGGTTGGTTTCACT; site = the 11-nt target", "method_in_brief": "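In a pooled screen in E. coli, targets were paired with target-binding loops of the IS621 bridge RNA. Each oligo carried a promoter, a target, a barcode and the first 104 bridge RNA bases driven by J23119, and was Gibson-cloned into a vector holding the remaining 73 bp and a T7-inducible recombinase before co-electroporation with a donor plasmid. Duplicate platings went onto chloramphenicol/ampicillin LB agar as the control or onto chloramphenicol/ampicillin/kanamycin with 0.1 mM IPTG. Recombination efficiency is the averaged, control-corrected count per million of barcodes at recombinant junctions, given as log10(CPM+1).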"}
{"sequence": "GATGTACCTTGGGTTCTAACCTGTTGCCT (site AATGTACCTAG)", "recombinant barcode read abundance (log10)": 0.984}
{"sequence": "GATGTACCTTGGGTTCTAACCTGTTGCCT (site CATGTACCTAG)", "recombinant barcode read abundance (log10)": 0.43}
{"sequence": "GATGTACCTTGGGTTCTAACCTGTTGCCT (site GATGTACCTAG)", "recombinant barcode read abundance (log10)": 1.7}
{"sequence": "GATGTACCTTGGGTTCTAACCTGTTGCCT (site TATGTACCTAG)", "recombinant barcode read abundance (log10)": 1.06}
{"sequence": "GATGTGACTTGGGTTCTAACCTGTTGCCT (site GATGCGACTCG)", "recombinant barcode read abundance (log10)": 0.182}
{"sequence": "GATGTGACTTGGGTTCTAACCTGTTGCCT (site GATGTGACTAG)", "recombinant barcode read abundance (log10)": 2.3}
{"sequence": "GATTAGACTTGGGTTCTAACCTGTTGCCT (site AATTAGACTAG)", "recombinant barcode read abundance (log10)": 0.308}
{"sequence": "GATTAGACTTGGGTTCTAACCTGTTGCCT (site CATTAGACTAG)", "recombinant barcode read abundance (log10)": 0.0591}
{"sequence": "GATTAGACTTGGGTTCTAACCTGTTGCCT (site GATTAGACTAG)", "recombinant barcode read abundance (log10)": 1.09}
{"sequence": "GATTAGACTTGGGTTCTAACCTGTTGCCT (site TATTAGACTAG)", "recombinant barcode read abundance (log10)": 0.331}
{"sequence": "GATTCACCTTGGGTTCTAACCTGTTGCCT (site AATTCACCTAG)", "recombinant barcode read abundance (log10)": 0.543}
{"sequence": "GATTCACCTTGGGTTCTAACCTGTTGCCT (site CATTCACCTAG)", "recombinant barcode read abundance (log10)": 0.0425}
{"sequence": "GATTCACCTTGGGTTCTAACCTGTTGCCT (site GATTCACCTAG)", "recombinant barcode read abundance (log10)": 0.739}
{"sequence": "GATTCACCTTGGGTTCTAACCTGTTGCCT (site TATTCACCTAG)", "recombinant barcode read abundance (log10)": 0.274}
{"sequence": "GATTTCTCTTGGGTTCTAACCTGTTGCCT (site AATTTCTCTAG)", "recombinant barcode read abundance (log10)": 0.104}
{"sequence": "GATTTCTCTTGGGTTCTAACCTGTTGCCT (site CATTTCTCTAG)", "recombinant barcode read abundance (log10)": 0.0742}
{"sequence": "GATTTCTCTTGGGTTCTAACCTGTTGCCT (site GATTTCTCTAG)", "recombinant barcode read abundance (log10)": 0.228}
{"sequence": "GATTTCTCTTGGGTTCTAACCTGTTGCCT (site TATTTCTCTAG)", "recombinant barcode read abundance (log10)": 0.124}
{"sequence": "GCAAGATCTTGGGTTCTAACCTGTTGCCT (site GCAAGATCTAG)", "recombinant barcode read abundance (log10)": 1.36}
{"sequence": "GCAAGATCTTGGGTTCTAACCTGTTGCCT (site GCAGGGTCTAG)", "recombinant barcode read abundance (log10)": 0.0113}
{"sequence": "GCAATGACTTGGGTTCTAACCTGTTGCCT (site GAAATGACTAG)", "recombinant barcode read abundance (log10)": 0}
{"sequence": "GCAATGACTTGGGTTCTAACCTGTTGCCT (site GCAATGACTAG)", "recombinant barcode read abundance (log10)": 1.88}
{"sequence": "GCAATGACTTGGGTTCTAACCTGTTGCCT (site GGAATGACTAG)", "recombinant barcode read abundance (log10)": 0.105}
{"sequence": "GCAATGACTTGGGTTCTAACCTGTTGCCT (site GTAATGACTAG)", "recombinant barcode read abundance (log10)": 0.292}
{"sequence": "GCAATGTCTTGGGTTCTAACCTGTTGCCT (site GAAATGTCTAG)", "recombinant barcode read abundance (log10)": 0.104}
{"sequence": "GCAATGTCTTGGGTTCTAACCTGTTGCCT (site GCAATGTCTAG)", "recombinant barcode read abundance (log10)": 1.42}
{"sequence": "GCAATGTCTTGGGTTCTAACCTGTTGCCT (site GGAATGTCTAG)", "recombinant barcode read abundance (log10)": 0.239}
{"sequence": "GCAATGTCTTGGGTTCTAACCTGTTGCCT (site GTAATGTCTAG)", "recombinant barcode read abundance (log10)": 0.443}
{"sequence": "GCACACCCTTGGGTTCTAACCTGTTGCCT (site CCACATCCTAG)", "recombinant barcode read abundance (log10)": 0.0345}
{"sequence": "GCACACCCTTGGGTTCTAACCTGTTGCCT (site GCACACCCTAG)", "recombinant barcode read abundance (log10)": 1.1}
{"sequence": "GCACATCCTTGGGTTCTAACCTGTTGCGT (site GCAAATCCTAG)", "recombinant barcode read abundance (log10)": 0.154}
{"sequence": "GCACATCCTTGGGTTCTAACCTGTTGCGT (site GCACATCCTAC)", "recombinant barcode read abundance (log10)": 2.53}
{"sequence": "GCACCTGCTTGGGTTCTAACCTGTTGCCT (site GCACCTGCTAG)", "recombinant barcode read abundance (log10)": 1.61}
{"sequence": "GCACCTGCTTGGGTTCTAACCTGTTGCCT (site TATTTGCCTCA)", "recombinant barcode read abundance (log10)": 0.238}
{"sequence": "GCACGCTCTTGGGTTCTAACCTGTTGCCT (site GCACACTCTAG)", "recombinant barcode read abundance (log10)": 0.607}
{"sequence": "GCACGCTCTTGGGTTCTAACCTGTTGCCT (site GCACCCTCTAG)", "recombinant barcode read abundance (log10)": 0.192}
{"sequence": "GCACGCTCTTGGGTTCTAACCTGTTGCCT (site GCACGCTCTAG)", "recombinant barcode read abundance (log10)": 1.55}
{"sequence": "GCACGCTCTTGGGTTCTAACCTGTTGCCT (site GCACTCTCTAG)", "recombinant barcode read abundance (log10)": 0.12}
{"sequence": "GCACTCTCTTGGGTTCTAACCTGTTGCCT (site GCACACTCTAG)", "recombinant barcode read abundance (log10)": 0.0251}
{"sequence": "GCACTCTCTTGGGTTCTAACCTGTTGCCT (site GCACCCTCTAG)", "recombinant barcode read abundance (log10)": 0.568}
{"sequence": "GCACTCTCTTGGGTTCTAACCTGTTGCCT (site GCACGCTCTAG)", "recombinant barcode read abundance (log10)": 0.101}
{"sequence": "GCACTCTCTTGGGTTCTAACCTGTTGCCT (site GCACTCTCTAG)", "recombinant barcode read abundance (log10)": 1.58}
{"sequence": "GCATCCACTTGGGTTCTAACCTGTTGCCT (site GCATCCACTAG)", "recombinant barcode read abundance (log10)": 0.938}
{"sequence": "GCATCCACTTGGGTTCTAACCTGTTGCCT (site GCGTCCACTAG)", "recombinant barcode read abundance (log10)": 0.0333}
{"sequence": "GCATCTACTTGGGTTCTAACCTGTTGCCT (site GAATCTACTAG)", "recombinant barcode read abundance (log10)": 0.101}
{"sequence": "GCATCTACTTGGGTTCTAACCTGTTGCCT (site GCATCTACTAG)", "recombinant barcode read abundance (log10)": 0.136}
{"sequence": "GCATCTACTTGGGTTCTAACCTGTTGCCT (site GGATCTACTAG)", "recombinant barcode read abundance (log10)": 0.059}
{"sequence": "GCATCTACTTGGGTTCTAACCTGTTGCCT (site GTATCTACTAG)", "recombinant barcode read abundance (log10)": 0.2}
{"sequence": "GCATCTCCTTGGGTTCTAACCTGTTGCCT (site ACATCTCCTAG)", "recombinant barcode read abundance (log10)": 0.4}
{"sequence": "GCATCTCCTTGGGTTCTAACCTGTTGCCT (site CCATCTCCTAG)", "recombinant barcode read abundance (log10)": 0.103}
{"sequence": "GCATCTCCTTGGGTTCTAACCTGTTGCCT (site GCATCTCCTAG)", "recombinant barcode read abundance (log10)": 1.06}
{"sequence": "GCATCTCCTTGGGTTCTAACCTGTTGCCT (site TCATCTCCTAG)", "recombinant barcode read abundance (log10)": 0.0491}
{"sequence": "GCATGAGCTTGGGTTCTAACCTGTTGCCT (site GCATGAGCTAG)", "recombinant barcode read abundance (log10)": 2.09}
{"sequence": "GCATGAGCTTGGGTTCTAACCTGTTGCCT (site GCCTGAGCTAG)", "recombinant barcode read abundance (log10)": 0.122}
{"sequence": "GCATGAGCTTGGGTTCTAACCTGTTGCCT (site GCGTGAGCTAG)", "recombinant barcode read abundance (log10)": 0.136}
{"sequence": "GCATGAGCTTGGGTTCTAACCTGTTGCCT (site GCTTGAGCTAG)", "recombinant barcode read abundance (log10)": 0.914}
{"sequence": "GCCAACCCTTGGGTTCTAACCTGTTGCAT (site GCCAACCCTAA)", "recombinant barcode read abundance (log10)": 0.0781}
{"sequence": "GCCAACCCTTGGGTTCTAACCTGTTGCAT (site GCCAACCCTAC)", "recombinant barcode read abundance (log10)": 0.0603}
{"sequence": "GCCAACCCTTGGGTTCTAACCTGTTGCAT (site GCCAACCCTAG)", "recombinant barcode read abundance (log10)": 0.348}
{"sequence": "GCCAACCCTTGGGTTCTAACCTGTTGCAT (site GCCAACCCTAT)", "recombinant barcode read abundance (log10)": 0}
{"sequence": "GCCAACCCTTGGGTTCTAACCTGTTGCTA (site GCCAACCCTTA)", "recombinant barcode read abundance (log10)": 0.116}
{"sequence": "GCCAACCCTTGGGTTCTAACCTGTTGCTA (site TCCAACCCTTG)", "recombinant barcode read abundance (log10)": 0.129}
{"sequence": "GCCACACCTTGGGTTCTAACCTGTTGCCT (site GCCAAACCTAG)", "recombinant barcode read abundance (log10)": 0.188}
{"sequence": "GCCACACCTTGGGTTCTAACCTGTTGCCT (site GCCACACCTAG)", "recombinant barcode read abundance (log10)": 0.222}
{"sequence": "GCCACACCTTGGGTTCTAACCTGTTGCCT (site GCCAGACCTAG)", "recombinant barcode read abundance (log10)": 0.177}
{"sequence": "GCCACACCTTGGGTTCTAACCTGTTGCCT (site GCCATACCTAG)", "recombinant barcode read abundance (log10)": 0.153}
{"sequence": "GCCAGGGCTTGGGTTCTAACCTGTTGCCG (site GCCAGGGCTCG)", "recombinant barcode read abundance (log10)": 0.461}
{"sequence": "GCCAGGGCTTGGGTTCTAACCTGTTGCCG (site GCCCGGGCTCG)", "recombinant barcode read abundance (log10)": 0.264}
{"sequence": "GCCAGGGCTTGGGTTCTAACCTGTTGCCG (site GCCGGGGCTCG)", "recombinant barcode read abundance (log10)": 0.111}
{"sequence": "GCCAGGGCTTGGGTTCTAACCTGTTGCCG (site GCCTGGGCTCG)", "recombinant barcode read abundance (log10)": 0.0195}
{"sequence": "GCCATACCTTGGGTTCTAACCTGTTGCCT (site GCCAAACCTAG)", "recombinant barcode read abundance (log10)": 0.0715}
{"sequence": "GCCATACCTTGGGTTCTAACCTGTTGCCT (site GCCACACCTAG)", "recombinant barcode read abundance (log10)": 0.0723}
{"sequence": "GCCATACCTTGGGTTCTAACCTGTTGCCT (site GCCAGACCTAG)", "recombinant barcode read abundance (log10)": 0.194}
{"sequence": "GCCATACCTTGGGTTCTAACCTGTTGCCT (site GCCATACCTAG)", "recombinant barcode read abundance (log10)": 0.199}
{"sequence": "GCCATGACTTGGGTTCTAACCTGTTGCCT (site GCCATAACTAG)", "recombinant barcode read abundance (log10)": 0.067}
{"sequence": "GCCATGACTTGGGTTCTAACCTGTTGCCT (site GCCATCACTAG)", "recombinant barcode read abundance (log10)": 0.0872}
{"sequence": "GCCATGACTTGGGTTCTAACCTGTTGCCT (site GCCATGACTAG)", "recombinant barcode read abundance (log10)": 0.132}
